What was measured:
rats = conditions: administered orally; cited from earlier work
[1] = test system: Candida albicans ATCC 10231, Pseudomonas aeruginosa ATCC 9027, Escherichia coli ATCC 8739 and Staphylococcus aureus ATCC 6538; assay: Preservative efficacy, overall result on the four standard U.S.P. organisms; type: cell-based; conditions: Monolaurin at 0.01% w/v in the emulsion, organisms tested
Description: The said aliquots were incubated at a temperature of 20-25° C. for fungal culture and 30 to 35° C. for bacterial culture as recommended under “Antimicrobial effectiveness testing” in United States Pharmacopeia, Chapter 51 (U.S.P. <51>).
(for fungal cultures) and 32° C.±2° C. (for bacterial cultures). The viable counts of the test organisms were determined after 24 hours and 48 hours.

Swiss Albino Mice = assay: Safety study with Monolaurin, daily intravenous administration for 7 days (Example XII); conditions: Monolaurin group versus EDTA group
Description: Compositions of Example IX, X and M were studied along with 5% Dextrose Injection as control.
The objective of this study was to access the safety of Monolaurin as such and in comparison with EDTA when administered into mice by an intravenous route.
Forty healthy Swiss albino mice weighing on an average 20-22 g were used in this study.
Toxicity was determined after administration of study materials.
Data was recorded as Mean +SD and median values for histopathological data.
Student's paired t-test was used to compare basal and final values of the parametric data within the same group and Student's unpaired t-test was used to compare values between two different groups. A ‘p’ value of <0.05 was considered as significant.
All experimental animals were observed daily for seven days for following parameters:
Each animal was weighed before the administration of study material and daily during the treatment period.

[2] = cited from earlier work
[3] = test system: broad spectrum microbial growth; conditions: Edetate at concentrations of 0.0025% and below; cited from earlier work

For `CCCCCCCCCCCC(=O)OCC(O)CO` (stereo not shown) [Monolaurin], the LD50 (rats) is given as “about 53,000 mg/kg body weight”, the “effectiveness as preservative (preventing a growth of not more than 10 fold)” value [1] is given as “effective as a preservative” and the Histopathological data (Swiss Albino Mice) is given as “compare well”. The “solubility in aqueous media” value ([2]; aqueous media) was “insoluble” and the “solubility in fat solvents” value ([2]; chloroform, benzene, ethanol, or acetone) was “highly soluble”.

For `O=C([O-])CN(CCN(CC(=O)[O-])CC(=O)O)CC(=O)O.[Na+].[Na+]` [EDTA, Disodium edetate, reference compound], the “preventing a no more than 10 fold increase in broad spectrum microbial growth” value [3] is listed as “ineffective” and the Histopathological data (Swiss Albino Mice) is listed as “compare well”.
